{
  "source": "patent US10689367B2",
  "about": "“Triazole pyridyl compounds as agonists of the APJ receptor” (AMGEN INC., priority 2016, dated 2020)",
  "key": {"[1]": {"test_system": "heart failure rats", "assay": "Cardiac function in heart failure rats in vivo with ACE inhibitor captopril, with or without APJ agonist", "design": "species or system rat", "details": "captopril alone, acute settings", "source_text": "The interaction between […] (ACE2) and Apelin biology is complicated. To investigate the interaction between the Apelin-APJ and ACE signalling pathways, we examined the improvement in cardiac function with APJ small molecule agonists in the presence of ACE inhibitor captopril in heart failure rats in vivo. […] However, in the presence of an APJ agonist, there was a shift in potency to the left with marked improvement in contractility and ejection fraction without changes in heart rate. These findings provide a new reference for the understanding of the regulation of ACE2 for the renin angiotensin aldosterone system (RAAS), independent of AT1R signaling and offer new potential drug targets for the treatment of diseases such as hypertension and heart failure. This work clearly establishes that combination of an agonist of the APJ receptor with an ARB such as losartan and/or with an ACE inhibitor such as captopril which may play an important role in providing greater efficacy in treating heart failure patients, for example in improving contractility and ejection fraction without changing the heart rate."}, "[2]": {"biological_target": "human APJ receptor (Homo sapiens (Human), UniProt P35414)", "sequence (P35414 whole entry)": "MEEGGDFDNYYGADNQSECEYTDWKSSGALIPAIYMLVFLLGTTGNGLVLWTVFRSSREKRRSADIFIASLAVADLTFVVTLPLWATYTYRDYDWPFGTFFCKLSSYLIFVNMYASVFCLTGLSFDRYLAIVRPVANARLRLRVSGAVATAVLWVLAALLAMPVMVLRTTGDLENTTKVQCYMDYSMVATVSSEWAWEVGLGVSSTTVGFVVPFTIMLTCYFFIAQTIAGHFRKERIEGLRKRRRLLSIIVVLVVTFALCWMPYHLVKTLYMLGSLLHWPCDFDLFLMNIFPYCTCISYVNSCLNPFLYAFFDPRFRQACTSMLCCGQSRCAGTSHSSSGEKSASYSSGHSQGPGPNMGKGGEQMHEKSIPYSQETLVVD", "assay": "[35S]GTPγS binding assay on membranes from CHO cells stably expressing human APJ receptor", "format": "biochemical", "details": "membranes of CHO cells stably expressing human APJ receptor, read-out: Activity hAPJ SPA EC50 IP", "in_short": "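Agonist EC50 values come from non-linear regression of mean data from several independent runs. Membranes of CHO cells stably expressing human APJ were incubated 90 min at room temperature with [35S]GTPγS in buffer with optimized GDP, MgCl2 and NaCl, then read on a microplate imager.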"}},
  "data": [
    {"smiles": "C[C@H](CS)C(=O)N1CCC[C@H]1C(=O)O", "note": "[Captopril, captopril]", "values": [
      {"measurement": "improvement in contractility or ejection fraction", "setting": "[1]", "result": "does not show a marked improvement in contractility or ejection fraction"}
    ]},
    {"smiles": "CC(C)O[C@@H](c1ncc(Cl)cn1)[C@H](C)S(=O)(=O)Nc1nnc(-c2ccccn2)n1C1CC1", "note": "[Example 127.0]", "values": [
      {"measurement": "EC50", "setting": "[2]", "result": 0.048, "unit": "µM"}
    ]},
    {"smiles": "COc1cccc(-c2nnc(NS(=O)(=O)[C@@H](C)[C@H](OC)c3ncc(Cl)cn3)n2[C@@H](C)c2ncn(C)n2)n1", "note": "(single isomer, unassigned) [Example 235.0, (1R,2S)-1-(5-chloro-2-pyrimidinyl)-1-methoxy-N-(5-(6-methoxy-2-pyridinyl)-4-((1S)-1-(1-methyl-1H-1,2,4-triazol-3-yl)ethyl)-4H-1,2,4-triazol-3-yl)-2-propanesulfonamide or (1R,2S)-1-(5-chloro-2-pyrimidinyl)-1-methoxy-N-(5-(6-methoxy-2-pyridinyl)-4-((1R)-1-(1-methyl-1H-1,2,4-triazol-3-yl)ethyl)-4H-1,2,4-triazol-3-yl)-2-propanesulfonamide]", "values": [
      {"measurement": "EC50", "setting": "[2]", "result": 0.1, "unit": "µM"}
    ]},
    {"smiles": "CC[C@H]([C@@H]1CCCCO1)n1c(NS(=O)(=O)[C@@H](C)[C@H](OC)c2ncc(C)cn2)nnc1-c1cccc(OC)n1", "note": "(single isomer, unassigned) [Example 331.0]", "values": [
      {"measurement": "EC50", "setting": "[2]", "result": 0.0006, "unit": "µM"}
    ]},
    {"smiles": "COc1cccc(-c2nnc(NS(=O)(=O)[C@@H](C)[C@H](OC)c3ncc(Cl)cn3)n2[C@H]2C[C@H](OC)C2)n1", "note": "[Example 181.0, (1R,2S)-1-(5-chloro-2-pyrimidinyl)-1-methoxy-N-(4-(trans-3-methoxycyclobutyl)-5-(6-methoxy-2-pyridinyl)-4H-1,2,4-triazol-3-yl)-2-propanesulfonamide]", "values": [
      {"measurement": "EC50", "setting": "[2]", "result": 0.19, "unit": "µM"}
    ]},
    {"smiles": "COCCn1c(NS(=O)(=O)[C@H](C)[C@@H](C)c2ncc(Cl)cn2)nnc1-c1cccnc1", "note": "(stereo in doubt) [Example 18.0, (2R,3S)-3-(5-chloro-2-pyrimidinyl)-N-(4-(2-methoxyethyl)-5-(3-pyridinyl)-4H-1,2,4-triazol-3-yl)-2-butanesulfonamide]", "values": [
      {"measurement": "EC50", "setting": "[2]", "result": 0.25, "unit": "µM"}
    ]},
    {"smiles": "COc1cnc([C@@H](OC)[C@H](C)S(=O)(=O)Nc2nnc(-c3cccc(OC)n3)n2[C@H]2CC23CC3)cn1", "note": "(single isomer, unassigned) [Example 159.0, (1R,2S)-1-methoxy-1-(5-methoxypyrazin-2-yl)-N-(5-(6-methoxypyridin-2-yl)-4-((S)-spiro[2.2]pentan-1-yl)-4H-1,2,4-triazol-3-yl)propane-2-sulfonamide or (1R,2S)-1-methoxy-1-(5-methoxypyrazin-2-yl)-N-(5-(6-methoxypyridin-2-yl)-4-((R)-spiro[2.2]pentan-1-yl)-4H-1,2,4-triazol-3-yl)propane-2-sulfonamide]", "values": [
      {"measurement": "EC50", "setting": "[2]", "result": 0.55, "unit": "µM"}
    ]},
    {"smiles": "COc1cccc(-c2nnc(NS(=O)(=O)[C@@H](C)[C@H](OC)c3ncc(Cl)cn3)n2[C@H]2CCCC[C@H]2C)n1", "note": "(stereo in doubt) [Example 75.0]", "values": [
      {"measurement": "EC50", "setting": "[2]", "result": 0.003, "unit": "µM"}
    ]},
    {"smiles": "COc1ccc(Cn2c(NS(=O)(=O)[C@@H](C)[C@H](OC)c3ncc(Cl)cn3)nnc2-c2cccc(OC)n2)cc1", "note": "[Example 170.0, (1R,2S)-1-(5-chloropyrimidin-2-yl)-1-methoxy-N-(4-(4-methoxybenzyl)-5-(6-methoxypyridin-2-yl)-4H-1,2,4-triazol-3-yl)propane-2-sulfonamide]", "values": [
      {"measurement": "EC50", "setting": "[2]", "result": 0.00076, "unit": "µM"}
    ]},
    {"smiles": "COc1cccc(-c2nnc(NS(=O)(=O)[C@@H](C)[C@@H](OC(C)C)c3ncc(C)cn3)n2[C@@H](C)[C@H]2CCCO2)n1", "note": "(single isomer, unassigned) [Example 275.0]", "values": [
      {"measurement": "EC50", "setting": "[2]", "result": 0.018, "unit": "µM"}
    ]},
    {"smiles": "COCC1(n2c(NS(=O)(=O)[C@@H](C)[C@H](OC)c3ncc(Cl)cn3)nnc2-c2cccc(OC)n2)CC1", "note": "[Example 4.0]", "values": [
      {"measurement": "EC50", "setting": "[2]", "result": 0.00016, "unit": "µM"}
    ]},
    {"smiles": "COc1cccc(-c2nnc(NS(=O)(=O)[C@@H](C)[C@H](OC)c3ncc(Cl)cn3)n2CCc2ccc(F)cc2)n1", "note": "[Example 74.0]", "values": [
      {"measurement": "EC50", "setting": "[2]", "result": 0.031, "unit": "µM"}
    ]},
    {"smiles": "COc1cccc(-c2nnc(NS(=O)(=O)[C@@H](C)[C@H](OC)c3ncc(Cl)cn3)n2[C@H](C)c2cscn2)n1", "note": "(single isomer, unassigned) [Example 344.0, (1R,2S)-1-(5-chloropyrimidin-2-yl)-1-methoxy-N-(5-(6-methoxypyridin-2-yl)-4-((S)-1-(thiazol-4-yl)ethyl)-4H-1,2,4-triazol-3-yl)propane-2-sulfonamide or (1R,2S)-1-(5-chloropyrimidin-2-yl)-1-methoxy-N-(5-(6-methoxypyridin-2-yl)-4-((R)-1-(thiazol-4-yl)ethyl)-4H-1,2,4-triazol-3-yl)propane-2-sulfonamide]", "values": [
      {"measurement": "EC50", "setting": "[2]", "result": 0.0071, "unit": "µM"}
    ]},
    {"smiles": "COc1cccc(-c2nnc(NS(=O)(=O)[C@@H](C)[C@H](OC)c3ncc(Cl)cn3)n2[C@H](C)c2cccnc2)n1", "note": "(single isomer, unassigned) [Example 350.0, (1R,2S)-1-(5-chloropyrimidin-2-yl)-1-methoxy-N-(5-(6-methoxypyridin-2-yl)-4-((R)-1-(pyridin-3-yl)ethyl)-4H-1,2,4-triazol-3-yl)propane-2-sulfonamide or (1R,2S)-1-(5-chloropyrimidin-2-yl)-1-methoxy-N-(5-(6-methoxypyridin-2-yl)-4-((S)-1-(pyridin-3-yl)ethyl)-4H-1,2,4-triazol-3-yl)propane-2-sulfonamide]", "values": [
      {"measurement": "EC50", "setting": "[2]", "result": 0.00784, "unit": "µM"}
    ]},
    {"smiles": "COc1cccc(-c2nnc(NS(=O)(=O)[C@@H](C)[C@H](OC)c3ncc(C)cn3)n2C2CC2)n1", "note": "[Example 120.0]", "values": [
      {"measurement": "EC50", "setting": "[2]", "result": 0.024, "unit": "µM"}
    ]},
    {"smiles": "COc1cccc(-c2nnc(NS(=O)(=O)[C@@H](C)[C@H](OC)c3cnc(C)cn3)n2Cc2ccno2)n1", "note": "[Example 206.0, (1R,2S)-1-methoxy-N-(5-(6-methoxy-2-pyridinyl)-4-(1,2-oxazol-5-ylmethyl)-4H-1,2,4-triazol-3-yl)-1-(5-methyl-2-pyrazinyl)-2-propanesulfonamide]", "values": [
      {"measurement": "EC50", "setting": "[2]", "result": 0.21, "unit": "µM"}
    ]},
    {"smiles": "COCCn1c(NS(=O)(=O)[C@@H](C)[C@H](OC)c2ncc(Cl)cn2)nnc1-c1cccc(OC)n1", "note": "[Example 3.0, (1R,2S)-1-(5-chloro-2-pyrimidinyl)-1-methoxy-N-(4-(2-methoxyethyl)-5-(6-methoxy-2-pyridinyl)-4H-1,2,4-triazol-3-yl)-2-propanesulfonamide]", "values": [
      {"measurement": "EC50", "setting": "[2]", "result": 0.0028, "unit": "µM"}
    ]},
    {"smiles": "CO[C@H](c1ncc(Cl)cn1)[C@H](C)S(=O)(=O)Nc1nnc(-c2cncc(C)c2)n1Cc1ccon1", "note": "[Example 262.0, (1R,2S)-1-(5-chloropyrimidin-2-yl)-N-(4-(isoxazol-3-ylmethyl)-5-(5-methylpyridin-3-yl)-4H-1,2,4-triazol-3-yl)-1-methoxypropane-2-sulfonamide]", "values": [
      {"measurement": "EC50", "setting": "[2]", "result": 0.2, "unit": "µM"}
    ]},
    {"smiles": "COCC1(n2c(NS(=O)(=O)[C@@H](C)[C@H](OC)c3ncc(Cl)cn3)nnc2-c2ccccn2)CC1", "note": "[Example 61.0]", "values": [
      {"measurement": "EC50", "setting": "[2]", "result": 0.00089, "unit": "µM"}
    ]},
    {"smiles": "COc1cccc(-c2nnc(NS(=O)(=O)[C@@H](C)[C@H](OC)c3ncc(Cl)cn3)n2C[C@@H]2CCC[C@H](C)O2)n1", "note": "(single isomer, unassigned) [Example 305.0]", "values": [
      {"measurement": "EC50", "setting": "[2]", "result": 0.004, "unit": "µM"}
    ]},
    {"smiles": "COc1cccc(-c2nnc(NS(=O)(=O)[C@@H](C)[C@H](OC)c3ncc(Cl)cn3)n2[C@@H]2CCC23CCC3)n1", "note": "(single isomer, unassigned) [Example 93.0]", "values": [
      {"measurement": "EC50", "setting": "[2]", "result": 0.0023, "unit": "µM"}
    ]},
    {"smiles": "COc1cc(Cn2c(NS(=O)(=O)[C@@H](C)[C@H](C)c3ncc(Cl)cn3)nnc2-c2cccc(OC)n2)on1", "note": "[Example 198.0, (2S,3R)-3-(5-chloro-2-pyrimidinyl)-N-(4-((3-methoxy-1,2-oxazol-5-yl)methyl)-5-(6-methoxy-2-pyridinyl)-4H-1,2,4-triazol-3-yl)-2-butanesulfonamide]", "values": [
      {"measurement": "EC50", "setting": "[2]", "result": 0.024, "unit": "µM"}
    ]},
    {"smiles": "COCC(COC)n1c(NS(=O)(=O)[C@@H](C)[C@H](OC)c2ncc(Cl)cn2)nnc1-c1cncc(C)c1", "note": "[Example 15.0, (1R,2S)-1-(5-chloro-2-pyrimidinyl)-N-(4-(1,3-dimethoxy-2-propanyl)-5-(5-methyl-3-pyridinyl)-4H-1,2,4-triazol-3-yl)-1-methoxy-2-propanesulfonamiide]", "values": [
      {"measurement": "EC50", "setting": "[2]", "result": 0.03, "unit": "µM"}
    ]},
    {"smiles": "COc1cccc(-c2nnc(NS(=O)(=O)[C@@H](C)[C@H](C)c3ncc(Cl)cn3)n2[C@H](C)c2csnn2)n1", "note": "(single isomer, unassigned) [Example 295.0, (2S,3R)-N-(4-((R)-1-(1,2,3-thiadiazol-4-yl)ethyl)-5-(6-methoxypyridin-2-yl)-4H-1,2,4-triazol-3-yl)-3-(5-chloropyrimidin-2-yl)butane-2-sulfonamide or (2S,3R)-N-(4-((S)-1-(1,2,3-thiadiazol-4-yl)ethyl)-5-(6-methoxypyridin-2-yl)-4H-1,2,4-triazol-3-yl)-3-(5-chloropyrimidin-2-yl)butane-2-sulfonamide]", "values": [
      {"measurement": "EC50", "setting": "[2]", "result": 0.0064, "unit": "µM"}
    ]},
    {"smiles": "COc1cccc(-c2nnc(NS(=O)(=O)[C@@H](C)[C@@H](OC(C)C)c3ncc(C)cn3)n2[C@@H](C)[C@H]2CCCO2)n1", "note": "(single isomer, unassigned) [Example 274.0]", "values": [
      {"measurement": "EC50", "setting": "[2]", "result": 0.0022, "unit": "µM"}
    ]}
  ]
}
